In ChEMBL document CHEMBL3286253, “Design, synthesis, and structure-activity relationship studies of novel thioether pleuromutilin derivatives as potent antibacterial agents” (J Med Chem, 2014):
≈ marks a conversion by molar mass, not a printed value.

How the values were obtained:
Staphylococcus aureus [1] = experiment: Antibacterial activity against Staphylococcus aureus […] after 16 hrs by agar dilution method; type: functional
Staphylococcus aureus [2] = experiment: Antibacterial activity against methicillin-sensitive Staphylococcus aureus after 16 hrs by agar dilution method; type: functional
Staphylococcus aureus [3] = experiment: Antibacterial activity against methicillin-resistant Staphylococcus aureus after 16 hrs by agar dilution method; type: functional
[4] = test system: Staphylococcus epidermidis; experiment: Antibacterial activity against methicillin-sensitive Staphylococcus epidermidis after 16 hrs by agar dilution method; type: functional
Streptococcus pneumoniae = experiment: Antibacterial activity against penicillin-resistant Streptococcus pneumoniae after 16 hrs by agar dilution method; type: functional
[5] = AUC (0 to t) in Sprague-Dawley rat at 10 mg/kg, iv; type: ADME, organism-based; parameters: dose 10 mg/kg, route intravenous; conditions: plasma
[6] = Mean residence time in Sprague-Dawley rat at 10 mg/kg, iv; type: ADME, organism-based; parameters: dose 10 mg/kg, route intravenous; conditions: in vivo
[7] = Elimination half life in Sprague-Dawley rat at 10 mg/kg, iv; type: ADME, organism-based; parameters: dose 10 mg/kg, route intravenous; conditions: in vivo, read-out: beta t1/2 (converted)
[8] = Clearance in Sprague-Dawley rat at 10 mg/kg, iv; type: ADME, organism-based; parameters: dose 10 mg/kg, route intravenous; conditions: in vivo
[9] = Volume of distribution at steady state in Sprague-Dawley rat at 10 mg/kg, iv; type: ADME, organism-based; parameters: dose 10 mg/kg, route intravenous; conditions: in vivo, read-out: Vdss
[10] = test system: Staphylococcus epidermidis; experiment: Antibacterial activity against methicillin-resistant Staphylococcus epidermidis after 16 hrs by agar dilution method; type: functional
[11] = Aqueous solubility of the compound in water at pH 7.4
Cytochrome P450 1A2 = target: T1, Cytochrome P450 1A2 (Homo sapiens, UniProt P05177); experiment: Inhibition of CYP1A2 in human liver microsomes using phenacetin as substrate after 15 mins by LC/MS/MS analysis
T1 sequence (P05177 whole entry): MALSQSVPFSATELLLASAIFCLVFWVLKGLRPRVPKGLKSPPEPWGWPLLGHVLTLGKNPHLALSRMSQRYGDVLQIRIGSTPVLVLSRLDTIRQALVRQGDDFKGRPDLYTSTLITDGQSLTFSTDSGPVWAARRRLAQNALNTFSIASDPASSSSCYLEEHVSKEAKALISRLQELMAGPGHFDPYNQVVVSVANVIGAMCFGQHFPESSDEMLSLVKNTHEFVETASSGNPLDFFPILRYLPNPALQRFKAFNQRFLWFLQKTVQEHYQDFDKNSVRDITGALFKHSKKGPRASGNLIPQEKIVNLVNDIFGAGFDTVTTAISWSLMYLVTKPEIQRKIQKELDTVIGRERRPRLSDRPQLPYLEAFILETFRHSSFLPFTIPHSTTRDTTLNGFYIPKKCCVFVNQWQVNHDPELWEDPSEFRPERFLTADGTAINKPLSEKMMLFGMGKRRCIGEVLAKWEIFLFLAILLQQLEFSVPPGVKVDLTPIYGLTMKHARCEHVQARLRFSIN

Cytochrome P450 2C9 = Cytochrome P450 2C9 (Homo sapiens, UniProt P11712); experiment: Inhibition of CYP2C9 in human liver microsomes using tolbutamide as substrate after 15 mins by LC/MS/MS analysis
Chain of Cytochrome P450 2C9 (P11712 whole entry): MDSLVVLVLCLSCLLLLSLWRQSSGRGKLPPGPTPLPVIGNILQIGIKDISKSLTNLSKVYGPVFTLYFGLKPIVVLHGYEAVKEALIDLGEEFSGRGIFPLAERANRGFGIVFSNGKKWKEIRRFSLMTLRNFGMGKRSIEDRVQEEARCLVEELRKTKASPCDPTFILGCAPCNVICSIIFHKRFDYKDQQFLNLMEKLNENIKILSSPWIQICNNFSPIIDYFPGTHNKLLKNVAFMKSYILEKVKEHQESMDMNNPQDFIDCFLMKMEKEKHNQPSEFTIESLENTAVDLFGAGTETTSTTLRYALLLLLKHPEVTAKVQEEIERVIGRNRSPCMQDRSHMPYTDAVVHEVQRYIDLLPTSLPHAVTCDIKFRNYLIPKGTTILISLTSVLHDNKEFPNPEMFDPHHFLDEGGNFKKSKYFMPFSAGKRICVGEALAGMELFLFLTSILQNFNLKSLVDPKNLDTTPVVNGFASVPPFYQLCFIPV

Cytochrome P450 2C19 = Cytochrome P450 2C19 (Homo sapiens, UniProt P33261); experiment: Inhibition of CYP2C19 in human liver microsomes using mephenytoin as substrate after 15 mins by LC/MS/MS analysis
Chain of Cytochrome P450 2C19 (P33261 whole entry): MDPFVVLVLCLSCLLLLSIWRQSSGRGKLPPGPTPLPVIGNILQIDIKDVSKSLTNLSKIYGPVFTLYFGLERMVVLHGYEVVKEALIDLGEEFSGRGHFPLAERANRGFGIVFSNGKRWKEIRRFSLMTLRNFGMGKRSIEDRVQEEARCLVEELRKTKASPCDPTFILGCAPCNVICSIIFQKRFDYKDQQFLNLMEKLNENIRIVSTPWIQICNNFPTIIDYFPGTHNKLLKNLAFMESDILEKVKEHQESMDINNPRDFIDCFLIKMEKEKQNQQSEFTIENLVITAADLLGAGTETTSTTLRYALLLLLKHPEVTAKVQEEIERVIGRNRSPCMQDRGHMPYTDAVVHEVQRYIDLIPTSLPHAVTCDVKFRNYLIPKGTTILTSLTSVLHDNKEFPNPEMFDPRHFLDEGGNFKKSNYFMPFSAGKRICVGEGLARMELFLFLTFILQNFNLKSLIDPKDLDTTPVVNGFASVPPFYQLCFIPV

Cytochrome P450 2D6 = Cytochrome P450 2D6 (Homo sapiens, UniProt P10635); experiment: Inhibition of CYP2D6 in human liver microsomes using dextromethorphan as substrate after 15 mins by LC/MS/MS analysis
Chain of Cytochrome P450 2D6 (P10635 whole entry): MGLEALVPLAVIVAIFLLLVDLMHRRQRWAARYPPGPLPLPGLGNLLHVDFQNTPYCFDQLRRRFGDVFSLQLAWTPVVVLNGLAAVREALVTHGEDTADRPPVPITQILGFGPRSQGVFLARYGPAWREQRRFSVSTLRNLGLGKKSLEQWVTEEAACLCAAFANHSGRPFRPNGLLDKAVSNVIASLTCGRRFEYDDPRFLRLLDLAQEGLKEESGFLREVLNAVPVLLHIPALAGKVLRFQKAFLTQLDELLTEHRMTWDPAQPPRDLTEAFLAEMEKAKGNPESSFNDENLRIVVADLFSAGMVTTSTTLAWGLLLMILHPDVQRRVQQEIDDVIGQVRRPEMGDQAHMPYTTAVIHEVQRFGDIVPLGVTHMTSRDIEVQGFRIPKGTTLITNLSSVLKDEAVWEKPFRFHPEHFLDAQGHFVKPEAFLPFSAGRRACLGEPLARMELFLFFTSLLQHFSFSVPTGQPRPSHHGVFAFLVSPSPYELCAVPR

Cytochrome P450 3A4 [12] = target: T2, Cytochrome P450 3A4 (Homo sapiens, UniProt P08684); experiment: Inhibition of CYP3A4 in human liver microsomes using midazolam as substrate after 15 mins by LC/MS/MS analysis
T2 sequence (P08684 whole entry): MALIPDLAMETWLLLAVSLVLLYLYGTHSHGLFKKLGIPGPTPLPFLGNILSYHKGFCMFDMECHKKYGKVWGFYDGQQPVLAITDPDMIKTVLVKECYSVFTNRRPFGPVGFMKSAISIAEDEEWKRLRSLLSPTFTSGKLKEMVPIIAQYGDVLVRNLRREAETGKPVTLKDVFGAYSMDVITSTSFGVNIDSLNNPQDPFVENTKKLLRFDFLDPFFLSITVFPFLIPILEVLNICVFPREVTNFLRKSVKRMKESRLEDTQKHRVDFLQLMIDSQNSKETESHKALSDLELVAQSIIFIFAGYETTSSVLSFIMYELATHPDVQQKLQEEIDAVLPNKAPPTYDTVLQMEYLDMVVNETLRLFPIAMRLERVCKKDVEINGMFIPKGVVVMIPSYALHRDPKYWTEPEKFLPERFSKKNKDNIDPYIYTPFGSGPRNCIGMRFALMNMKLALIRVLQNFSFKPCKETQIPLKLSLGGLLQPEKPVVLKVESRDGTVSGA

Cytochrome P450 3A4 [13] = target: T2, Cytochrome P450 3A4; experiment: Inhibition of CYP3A4 in human liver microsomes using testosterone as substrate after 15 mins by LC/MS/MS analysis
[14] = AUC (0 to t) in Sprague-Dawley rat at 2 mg/kg, iv administered as cassette dosing; type: ADME, organism-based; parameters: dose 2 mg/kg, route intravenous; conditions: plasma
[15] = Mean residence time in Sprague-Dawley rat at 2 mg/kg, iv administered as cassette dosing; type: ADME, organism-based; parameters: dose 2 mg/kg, route intravenous; conditions: in vivo
[16] = Elimination half life in Sprague-Dawley rat at 2 mg/kg, iv administered as cassette dosing; type: ADME, organism-based; parameters: dose 2 mg/kg, route intravenous; conditions: in vivo, read-out: beta t1/2 (converted)
[17] = Clearance in Sprague-Dawley rat at 2 mg/kg, iv administered as cassette dosing; type: ADME, organism-based; parameters: dose 2 mg/kg, route intravenous; conditions: in vivo
[18] = Volume of distribution at steady state in Sprague-Dawley rat at 2 mg/kg, iv administered as cassette dosing; type: ADME, organism-based; parameters: dose 2 mg/kg, route intravenous; conditions: in vivo, read-out: Vdss
Staphylococcus aureus [19] = experiment: Antibacterial activity against clinical isolate of methicillin-sensitive Staphylococcus aureus infected in iv dosed mouse administered 1 hr after infection for 4 days; type: functional
Staphylococcus aureus [20] = experiment: Antibacterial activity against clinical isolate of methicillin-sensitive Staphylococcus aureus infected in iv dosed mouse assessed as host survival administered 1 hr after infection for 4 days; type: functional
Staphylococcus aureus [21] = experiment: Antibacterial activity against of methicillin-sensitive Staphylococcus aureus ATCC 19636 infected in iv dosed mouse administered 1 hr after infection measured after 48 hrs; type: functional
Staphylococcus aureus [22] = experiment: Antibacterial activity against of methicillin-sensitive Staphylococcus aureus ATCC 19636 infected in iv dosed mouse assessed as host survival administered 1 hr after infection measured after 48 hrs; type: functional; conditions: ATCC 19636, iv
Staphylococcus aureus [23] = experiment: Antibacterial activity against of methicillin-resistant Staphylococcus aureus ATCC 33591 infected in iv dosed neutropenic mouse administered 1 hr after infection measured after 24 hrs; type: functional
Staphylococcus aureus [24] = experiment: Antibacterial activity against of methicillin-resistant Staphylococcus aureus ATCC 33591 infected in iv dosed neutropenic mouse assessed as host survival administered 1 hr after infection measured after 24 hrs; type: functional; conditions: ATCC 33591, iv
[25] = Chemical stability of solid state of the compound assessed as compound remaining after 24 hrs by UV/HPLC analysis; type: physicochemical; conditions: read-out: Stability
[26] = Chemical stability of solid state of the compound assessed as compound remaining after 100 days by UV/HPLC analysis; type: physicochemical; conditions: read-out: Stability
[27] = Chemical stability of aqueous solution state of the compound assessed as compound remaining after 24 hrs by UV/HPLC analysis; type: physicochemical; conditions: read-out: Stability
[28] = Chemical stability of aqueous solution state of the compound assessed as compound remaining after 14 days by UV/HPLC analysis; type: physicochemical; conditions: read-out: Stability
[29] = Tmax in Sprague-Dawley rat at 10 mg/kg, iv; type: ADME, organism-based; parameters: dose 10 mg/kg, route intravenous; conditions: in vivo
[30] = Plasma concentration in Sprague-Dawley rat at 10 mg/kg, iv after 15 mins; type: ADME, organism-based; parameters: dose 10 mg/kg, route intravenous
Rattus norvegicus = experiment: Tmax in Sprague-Dawley rat assessed as 14-O-(((5-hydroxymethylpyridin-3-yl)sulfanyl)acetyl)mutilin level at 10 mg/kg, iv; type: ADME, organism-based; parameters: dose 10 mg/kg, route intravenous; conditions: in vivo

SMILES | MIC (Staphylococcus aureus [1]) [µg/mL] | MIC (Staphylococcus aureus [2]) [µg/mL] | MIC (Staphylococcus aureus [3]) [µg/mL] | MIC [4] [µg/mL] | MIC (Streptococcus pneumoniae) [µg/mL] | AUC(0-t) [5] [ng·h/mL] | MRT [6] [min] | half-life [7] [min] | clearance [8] [mL/min/kg] | Vd [9] [L/kg] | MIC [10] [µg/mL] | IC50 (Cytochrome P450 1A2) [µM] | IC50 (Cytochrome P450 2C9) [µM] | IC50 (Cytochrome P450 2C19) [µM] | IC50 (Cytochrome P450 2D6) [µM] | IC50 (Cytochrome P450 3A4 [12]) [µM] | IC50 (Cytochrome P450 3A4 [13]) [µM] | MIC (Staphylococcus aureus [19]) [µg/mL] | ED50 (Staphylococcus aureus [20]) [mg/kg] | MIC (Staphylococcus aureus [21]) [µg/mL] | other results
C=C[C@]1(C)C[C@@H](OC(=O)CSc2cncc(CO)c2)[C@]2(C)[C@H](C)CC[C@]3(CCC(=O)[C@H]32)[C@@H](C)[C@@H]1O | 0.031 (≈ 0.0618 µM) | 0.063 (≈ 0.126 µM) | 0.031 (≈ 0.0618 µM) | 0.031 (≈ 0.0618 µM) | 0.063 (≈ 0.126 µM) | 3480 | 32.4 | 360 | 48 | 1.56 | 0.031 (≈ 0.0618 µM) |  |  |  |  |  |  |  |  |  | 
C=C[C@]1(C)C[C@@H](OC(=O)CSc2cncc(N)c2)[C@]2(C)[C@H](C)CC[C@]3(CCC(=O)[C@H]32)[C@@H](C)[C@@H]1O | 0.031 (≈ 0.0637 µM) | 0.063 (≈ 0.129 µM) | 0.031 (≈ 0.0637 µM) | 0.031 (≈ 0.0637 µM) | 0.063 (≈ 0.129 µM) |  |  |  |  |  | 0.031 (≈ 0.0637 µM) | > 25 | > 25 | 15.5 | 17.1 | 0.135 | 0.0444 |  |  |  | solubility ([11]; buffer): Insoluble
C=C[C@]1(C)C[C@@H](OC(=O)CSc2cncc(NC(=O)CN3CCC(O)CC3)c2)[C@]2(C)[C@H](C)CC[C@]3(CCC(=O)[C@H]32)[C@@H](C)[C@@H]1O | 0.031 (≈ 0.0494 µM) | 0.125 (≈ 0.199 µM) | 0.063 (≈ 0.1 µM) | 0.125 (≈ 0.199 µM) | 0.063 (≈ 0.1 µM) |  |  |  |  |  | 0.063 (≈ 0.1 µM) | > 25 | > 25 | > 25 | 11.2 | 1.89 | 1.63 | 0.063 (≈ 0.1 µM) | 16.7 | 0.063 (≈ 0.1 µM) | AUC(0-t) [14]: 650 ng·h/mL; MRT [15]: 36.6 min; half-life [16]: 40.2 min; clearance [17]: 53.3 mL/min/kg; Vd [18]: 1.9 L/kg; ED50 (Staphylococcus aureus [22]): 9.02 mg/kg; MIC (Staphylococcus aureus [23]): 0.125 µg/mL (≈ 0.199 µM); ED50 (Staphylococcus aureus [24]): 3.13 mg/kg
C=C[C@]1(C)C[C@@H](OC(=O)CSc2cncc(COP(=O)([O-])[O-])c2)[C@]2(C)[C@H](C)CC[C@]3(CCC(=O)[C@H]32)[C@@H](C)[C@@H]1O.[Na+].[Na+] |  |  |  |  |  | 1580 | 39 | 382 | 83.3 | 3.26 |  |  |  |  |  |  |  | > 32 | 29.2 |  | solubility ([11]; water): 106 mg/mL; remaining at 24 h [25]: 98.1%; remaining at 2400 h [26]: 98.1%; remaining at 24 h [27]: 98.1%; remaining at 336 h [28]: 98.1%; Tmax [29]: 4.8 min; concentration at […] [30]: 3 ng/mL; Tmax (Rattus norvegicus): < 5 min
CC(=O)NC[C@H]1CN(c2ccc(N3CCOCC3)c(F)c2)C(=O)O1 [LINEZOLID] |  |  |  |  |  |  |  |  |  |  |  |  |  |  |  |  |  | 1 (≈ 2.96 µM) | 15.6 | 1 (≈ 2.96 µM) | ED50 (Staphylococcus aureus [22]): 7.89 mg/kg; MIC (Staphylococcus aureus [23]): 1 µg/mL (≈ 2.96 µM); ED50 (Staphylococcus aureus [24]): 9.39 mg/kg
